Results taken from patent publication US20250154288A1, “CYTOTOXICITY TARGETING CHIMERAS FOR C-C CHEMOKINE RECEPTOR 2-EXPRESSING CELLS” (GLAXOSMITHKLINE INTELLECTUAL PROPERTY DEVELOPMENT LIMITED, priority 2022, published 2025).

Tested on: endogenous target monocytes of human PBMC
Test: PBMC Ex Vivo Depletion Assay (human PBMC monocyte depletion flow cytometry)
Assay type: cell-based
Settings: monocyte depletion in human PBMC with anti-cotinine antibody; 18-24 hours incubation; read-out: Ex Vivo Depletion Assay pEC50 (converted)
Experimental: A human PBMC (peripheral blood mononuclear cells) monocyte depletion flow cytometry assay was developed to screen compounds in a 384-well plate format. This assay incorporated endogenous natural killer cells to deplete endogenous target monocytes.
To screen compounds in the human PBMC monocyte depletion flow cytometry assay, 11-point dose-response curves were made from 1 mM stocks in neat DMSO by serially diluting an ARM compound of Formula (I) four-fold into a 384-well plate row-wise. These serially diluted compounds were then stamped into a flat bottom polypropylene 384-well plate (Greiner Bio-One) at 100 nL/well. […]
After 18-24 hours incubation, 2 μL of 6.25 μg human FC block (BD Pharmingen) that was diluted in assay medium was added to the wells of the plate. […] Samples from the plate were run on BD FACS Canto II flow cytometer and data was analyzed using FlowJo software.
ARMs compounds of Formula (I) of the invention were tested for the ability to deplete monocytes in the above assay in one or more experimental runs and the results are shown in Table 3 below. […] The pEC50 value is the negative log of the EC50 value, wherein the EC50 value is the half maximal effective concentration measured in molar (M). For compounds tested in more than one experimental run, the pEC50 value is reported as an average or as the individual values measured

CO[C@@H]1COCC[C@@H]1N[C@@H]1CC[C@@](C(=O)N2CCc3nc(CCCCOc4cccc(C(=O)NCCOCCOCCOCCOCCOCCOCCOCCOCCOCCNC(=O)[C@H]5CC(=O)N(C)[C@@H]5c5cccnc5)c4)c(C(F)(F)F)cc3C2)(C(C)C)C1 [Example 22, (2S,3S)—N-(1-(3-(4-(6-((1S,3R)-1-Isopropyl-3-(((3S,4S)-3-methoxytetrahydro-2H-pyran-4-yl)amino)cyclopentane-1-carbonyl)-3-(trifluoromethyl)-5,6,7,8-tetrahydro-1,6-naphthyridin-2-yl)butoxy)phenyl)-1-oxo-5,8,11,14,17,20,23,26,29-nonaoxa-2-azahentriacontan-31-yl)-1-methyl-5-oxo-2-(pyridin-3-yl)pyrrolidine-3-carboxamide]
EC50: 0.794 nM
